Results as given in patent US4548952A, “2-[(2,6-Dichlorophenyl)amino]phenylacetoxyacetyl derivatives and therapeutic compositions containing same” (priority 1983, dated 1985).

How the values were obtained:
[1] = Acute toxicity by oral administration to rats; conditions: for LD0: oral, rats
Method: The acute toxicity of the foregoing compounds according to the present invention was studied by oral administration thereof to rats. The LD0 and LD50 values were determined, together with the limits of reliability as determined by the method of Litchfield and Wilcoxon.

[2] = Fetal and teratogenous toxicity; type: in vivo, Sprague-Dawley rats and first generation fetuses; conditions: 15, 50 and 75 mg/kg/day oral during organogenesis
[3] = Test of abdominal contractions by acetic acid (analgesic); type: in vivo, male mice; conditions: gastric catheter, 16 mice, half an hour before acetic acid i.p.
Method: (§1) The new 2-[(2,6-dichlorophenyl)amino]phenylacetoxyacetyl derivatives, according to the present invention, are compounds of therapeutic use with anti-inflammatory and analgesic pharmacologic properties, as shown by experimental pharmacologic data presented below. The analgesic activity of the compound (I) where R=H was determined by three known methods as follows.
This test was carried out according to the experimental model described by Koster R., Anderson, M. and De Bear, E. J. Fed. Proc., 18, 412 (1959). A suspension of the product to be tested was administered to a group of male mice through a gastric catheter half an hour before injecting the mice intraperitoneally with 0.2 ml of a 2% acetic acid solution. The number of abdominal contractions, manifested by drawing in of the rear third of the animal as a consequence of the chemical aggression incited by the acetic acid, were then counted.

[4] = Hot plate thermal stimulus test on mice (analgesic); type: in vivo; conditions: gastric catheter, hot plate 56° C., 10 mice, vs control mice
Method: as §1
This test is carried out according to the experimental model of Wolfe, G. and MacDonal, A. D., described in 3. Pharm. Exper. Therap. 80, 300 (1944). This test consists of administering, through a gastric catheter, a suspension of the test compound at the indicated dosages. After 30 minutes, 1 h., 11/2 h. and 2 h. the determinations were made. Mice were placed onto a hot plate at a temperature of 56° C. Table 2 indicates the percentage of protection from pain afforded by the dosages of the test compound in comparison with a group of control mice to which no test compound was administered.

[5] = Plantar carrageenin edema test (anti-inflammatory); type: in vivo, albino Sprague-Dawley male rats; conditions: gastric catheter; for Inhibition % M ± σ: complementary value to area relative inflammation; for % Area Relative Inflammation (M ± σ): control = 100%
Method: The anti-inflammatory activity of two compounds was studied by means of the test of the plantar carrageenin edema (C. A. Winter, Proc. Soc. Exp. Brol. Med. 111, 544-47 (1962). The method used consists of preparing homogeneous lots of albino Sprague-Dawley male rats with weights of from 180-200 gr, to which are administered, by gastric catheter, the test compound suspended in a vehicle containing 0.2% CMC and 0.1% Tween 80, sixty minutes before the production of the subplantar edema. […] Immediately after this, all the rats received via oral administration 20 ml/kg of distilled water to attain uniform hydration. 60 minutes later a 1% carrageenin solution in physiologic serum was administered subcutanaceously into the left rear leg of each rat, at a dosage of 0.1 ml/rat. The same amount of physiologic serum was then injected into the right rear leg of each rat.
The plantar amount of the left and right rear extremities of each rat was determined before the administration of the carrageenin solution, and 1, 2, 3, 4, 5 and 6 hours after the administration thereof by means of a mercury plethysmograph, Ugo Basile Model 7.100. Indomethacin was used as a sample drug for purposes of comparison. Results were calculated as percentages representing the value indicated for each area relative to the value of the areas for the control group to which were assigned the value of 100% inflammation. A complementary value, the percentage of inhibition, was also calculated from the data. The arithmetic average and standard deviation (M±σ) were calculated for the obtained values as to the volumes of each leg, normal or inflamed, for each animal in each group (control and treated).

[6] = Podolorimetric test in a rat (analgesic, yeast-infected leg); type: in vivo; conditions: 10 rats, vs control rats
Method: as §1
This test is based upon the method described by Randall, L. and Selitto, 3. Arch. Int. Pharmacodyn. 111, 409 (1957), consisting of administering the drug in a 1% carboxymethylcellulose (CMC) suspension. The test compound is administered to the rat, and 30 minutes thereafter a 20% yeast suspension is administered into the left leg of the rat and the same amount of physiologic serum is administered to the right leg of the rat. The threshold of the weight supported by both legs is determined 1 h., 2 h. and 4 h. after the administration of the yeast. Table 3 states the percentage of protection in terms of increased weight supported by the yeast-infected leg, relative to the dosage of the test compound, in comparison with a group of control rats to which no test compound was administered.

Row | Structure (SMILES) | LD0 [1] [mg/kg] | teratogenous effects [2] | toxic effects on the gestating females [2] | % PROTECTION (CONTROL OF CONTRACTIONS) ([3]; 100 mg/kg) [%] | % PROTECTION (CONTROL OF CONTRACTIONS) ([3]; 250 mg/kg) [%] | % PROTECTION ([4]; 20 mg/kg) [%] | % PROTECTION ([4]; 40 mg/kg) [%] | Inhibition % M ± σ ([5]; 3.0 mg/kg, 32 animals) [%] | % Area Relative Inflammation (M ± σ) ([5]; 3.0 mg/kg, 32 animals) [%] | % PROTECTION (increased weight supported by the yeast-infected leg) ([6]; 2.5 mg/kg) [%] | % PROTECTION (increased weight supported by the yeast-infected leg) ([6]; 10 mg/kg) [%] | Inhibition % M ± σ ([5]; 2.5 mg/kg, 40 animals) [%] | % Area Relative Inflammation (M ± σ) ([5]; 2.5 mg/kg, 40 animals) [%] | LD50 ([1]; rat, in vivo, po) [mg/kg] | Inhibition % M ± σ ([5]; 3.75 mg/kg, 32 animals) [%] | % Area Relative Inflammation (M ± σ) ([5]; 3.75 mg/kg, 32 animals) [%]
1 | O=C(O)COC(=O)Cc1ccccc1Nc1c(Cl)cccc1Cl [I, R = H, 2-[(2,6-dichlorophenyl)amino]phenylacetoxyacetic acid] | 68.03 | did not have any teratogenous effects | did not produce any toxic effects on the gestating females | 30.81 | 67.62 | 22.44 | 24.80 | 33.75 | 63.25 ± 5.88 | 32.05 | 45.45 |  |  |  |  | 
2 | COc1ccc2c(c1)c(CC(=O)O)c(C)n2C(=O)c1ccc(Cl)cc1 [INDOMETHACIN, Indomethacin, reference compound] |  |  |  |  |  |  |  |  |  |  |  | 46.52 | 53.48 ± 7.82 |  |  | 
3 | O=C(COC(=O)Cc1ccccc1Nc1c(Cl)cccc1Cl)OCc1ccccc1 [I, R = CH2 --C6 H5, Benzyl 2-[(2,6-dichlorophenyl)amino]phenylacetoxyacetate] | 38.51 | did not have any teratogenous effects | did not produce any toxic effects on the gestating females |  |  |  |  |  |  |  |  |  |  | 95.3 | 35.96 | 64.04 ± 7.91
